Reference: ChEMBL document CHEMBL5233278, “Recent Advances in the Medicinal Chemistry of Farnesoid X Receptor” (J Med Chem, 2021)

Experiments:
[1] = biological target: T1, Bile acid receptor (Homo sapiens, UniProt Q96RI1); assay: Agonist activity at FXR in human HeLa cells incubated for 24 hrs by Dual-Glo luciferase assay; format: cell-based
T1 sequence (Q96RI1 whole entry): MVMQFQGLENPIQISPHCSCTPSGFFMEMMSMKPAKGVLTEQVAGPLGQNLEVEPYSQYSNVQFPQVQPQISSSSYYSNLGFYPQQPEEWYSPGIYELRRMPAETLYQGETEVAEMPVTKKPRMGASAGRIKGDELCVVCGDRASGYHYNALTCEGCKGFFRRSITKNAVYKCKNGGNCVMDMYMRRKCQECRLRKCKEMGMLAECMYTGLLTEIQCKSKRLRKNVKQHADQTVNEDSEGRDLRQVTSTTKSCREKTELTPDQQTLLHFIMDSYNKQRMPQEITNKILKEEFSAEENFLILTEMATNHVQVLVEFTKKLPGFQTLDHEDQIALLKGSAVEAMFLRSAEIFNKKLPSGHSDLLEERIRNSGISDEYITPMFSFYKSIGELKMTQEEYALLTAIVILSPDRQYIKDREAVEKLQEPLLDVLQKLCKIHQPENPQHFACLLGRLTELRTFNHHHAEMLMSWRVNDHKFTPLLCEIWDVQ

[2] = biological target: T2, Peroxisome proliferator-activated receptor delta (Homo sapiens, UniProt Q03181); assay: Agonist activity at human PPARdelta expressed in HEK293T cells incubated for 12 to 14 hrs by Dual-Glo luciferase assay; format: cell-based
T2 sequence (Q03181 whole entry): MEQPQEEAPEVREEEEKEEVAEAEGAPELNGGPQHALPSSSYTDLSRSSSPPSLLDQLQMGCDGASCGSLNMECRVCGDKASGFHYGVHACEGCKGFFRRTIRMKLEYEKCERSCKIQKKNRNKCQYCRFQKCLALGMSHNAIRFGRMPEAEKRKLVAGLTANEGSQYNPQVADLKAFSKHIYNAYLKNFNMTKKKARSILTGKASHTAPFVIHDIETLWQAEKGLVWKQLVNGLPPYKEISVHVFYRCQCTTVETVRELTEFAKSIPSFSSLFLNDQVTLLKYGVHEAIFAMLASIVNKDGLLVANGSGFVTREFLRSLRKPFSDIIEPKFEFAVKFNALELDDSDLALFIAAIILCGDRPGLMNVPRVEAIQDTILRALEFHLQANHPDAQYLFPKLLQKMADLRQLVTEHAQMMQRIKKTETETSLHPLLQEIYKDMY

EC50 [1]: 0.94 µM
EC50 [2]: 1.5 µM
SMILES: CC(C)c1onc(-c2c(Cl)cccc2Cl)c1COc1ccc(CNc2ccc(CC(=O)O)cc2)c(Cl)c1
